Test system: Increase in Intravesical Pressure Induced by Carbachol in Anesthetized Dog
Assay: Effect on the increase in intravesical pressure induced by carbachol in anesthetized dog
Format: in vivo
Details: 0.032 mg/kg intravenously, 30 minutes before carbachol (1.8 μg/kg); female Beagle dogs under halothane anesthesia
Description: Effect on the Increase in Intravesical Pressure Induced by Carbachol in Anesthetized Dog
Female Beagle dogs weighing 8.0-15.0 kg were fasted for 24 hours and maintained under halothane anesthesia. A 12 F Foley catheter was lubricated with water soluble jelly, inserted into the urethral orifice and advanced approximately 10 cm until the balloon tip was placed well inside the bladder. The balloon was then inflated with 5 ml of room air and catheter slowly withdrawn just part the first resistance that is felt at the bladder neck. Urine was completely drained out through the catheter, and 30 ml of biological saline was infused. The catheter was connected to pressure transducer, and intravesical pressure (IVP) was continuously recordered. The test compound was administered intravenously at 30 minutes before the administration of carbachol (1.8 μg/kg). Percent inhibition of IVP increase by test compound was calculated by dividing IVPa (IVP increase induced by carbachol after test compound administaration) by IVPb (IVP increase induced by carbachol just before test compound administration).

Q: For `COc1ccc(Oc2ccc3c(c2)C[C@@H](NC[C@H](O)c2ccc(Cl)cc2)CC3)cc1C(=O)O.Cl` [Test Compound (1), 5-[[(7S)-7-[[(2R)-2-(4-Chlorophenyl)-2-hydroxyethyl]-amino]-5,6,7,8-tetrahydro-2-naphthalenyl]oxy]-2-methoxybenzoic Acid Hydrochloride], which “Percent inhibition of IVP increase” value is on record?
A: 54%

— patent publication US20050090669A1, “Aminoalcohol derivatives as beta-3 adrenergic receptor agonists” (priority 2002, published 2005)
